# Source: ChEMBL document CHEMBL5579804, “Synthesis and kinetic evaluation of phosphomimetic inhibitors targeting type B ribose-5-phosphate isomerase from Mycobacterium tuberculosis” (Bioorg Med Chem Lett, 2024)
# How the values were obtained:
# [1] = target: T1, ribose-5-phosphate isomerase (Spinacia oleracea) (UniProt Q8RU73); assay: Competitive inhibition of Spinacia oleracea RPIA assessed as ratio of Km/Ki using D-ribose-5-phosphate as substrate by Cheng-Prusoff equation analysis
# T1 sequence (whole entry): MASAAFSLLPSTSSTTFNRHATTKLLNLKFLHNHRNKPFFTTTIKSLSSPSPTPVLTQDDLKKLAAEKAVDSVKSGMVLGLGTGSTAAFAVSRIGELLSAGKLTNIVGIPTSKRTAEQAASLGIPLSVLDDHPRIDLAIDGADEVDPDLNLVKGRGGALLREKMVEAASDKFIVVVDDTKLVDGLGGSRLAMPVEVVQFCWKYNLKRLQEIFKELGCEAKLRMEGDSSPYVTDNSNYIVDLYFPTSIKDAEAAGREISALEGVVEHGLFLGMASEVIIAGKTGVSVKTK
# [2] = target: T2, Ribose-5-phosphate isomerase B (Escherichia coli (strain K12)) (UniProt P37351); assay: Competitive inhibition of Escherichia coli RPIB assessed as ratio of Km/Ki using D-ribose-5-phosphate as substrate by Cheng-Prusoff equation analysis
# T2 sequence (whole entry): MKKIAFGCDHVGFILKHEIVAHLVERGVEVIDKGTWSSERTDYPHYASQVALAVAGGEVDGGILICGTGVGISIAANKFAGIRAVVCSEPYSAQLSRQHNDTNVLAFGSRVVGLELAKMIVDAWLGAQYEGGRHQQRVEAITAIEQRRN
# [3] = Selectivity ratio of Km/Ki for Mycobacterium tuberculosis RpiB to Km/Ki for Spinacia oleracea RpiA
# [4] = target: T3, Ribose-5-phosphate isomerase B (Mycobacterium tuberculosis) (UniProt P9WKD7); assay: Competitive inhibition of Mycobacterium tuberculosis RPIB assessed as ratio of Km/Ki using D-ribose-5-phosphate as substrate by Cheng-Prusoff equation analysis
# T3 sequence (whole entry): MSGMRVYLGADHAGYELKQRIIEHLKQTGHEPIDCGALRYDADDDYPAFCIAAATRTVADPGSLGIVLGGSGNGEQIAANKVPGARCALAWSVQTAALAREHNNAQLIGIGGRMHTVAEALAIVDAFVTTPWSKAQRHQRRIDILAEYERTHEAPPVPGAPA
smiles,measurement,setting,value
O=S(=O)(O)CC[C@H]1OC(O)[C@H](O)[C@@H]1O (some centres not stated),Ratio,[1],26
same,Ratio,[2],9
same,Selectivity ratio,[3],0.7
same,Ratio,[4],19
O=S(=O)(O)OC[C@H]1OC(O)[C@H](O)[C@@H]1O (some centres not stated),Ratio,[1],17
same,Ratio,[2],18
same,Selectivity ratio,[3],3.1
same,Ratio,[4],53
CC(C(C(=O)O)C(=O)O)[C@@H](O)[C@@H](O)[C@@H](O)CCP(=O)(O)O (some centres not stated),Ratio,[1],< 4
same,Selectivity ratio,[3],> 6.5
same,Ratio,[4],26
O=C(O)C(C[C@H]1OC(O)[C@H](O)[C@@H]1O)C(=O)O (some centres not stated),Ratio,[1],7
same,Ratio,[2],2
same,Selectivity ratio,[3],0.8
same,Ratio,[4],6
CC(C(C(=O)O)C(=O)O)[C@@H](O)[C@@H](O)[C@@H](O)CCC(=O)O (some centres not stated),Ratio,[1],< 4
same,Selectivity ratio,[3],> 1.7
same,Ratio,[4],7
O=C(O)[C@H](O)[C@H](O)[C@H](O)COP(=O)(O)O,Selectivity ratio,[3],4.5
"O=C(O)[C@@H](O)[C@@H](O)[C@@H](O)COP(=O)(O)O (single isomer, unassigned)",Ratio,[1],79
same,Selectivity ratio,[3],3
same,Ratio,[4],233
